The target of one series is T1, recombinant human Hsp90α (Homo sapiens, UniProt P07900).
T1 construct: purchased Abcam
Briefly: SPR binding to immobilized recombinant Hsp90α. Conditions: Biacore 3000, immobilized full length Hsp90α, 25 °C, 1:1 Langmuir model, read-out: KD (nM) ± SD. The method, then:
Recombinant human Hsp90α was purchased from Abcam (Abcam, Cambridge, UK). […] SPR analyses were carried out according to our previously published data[25]–[28],[32],[50]. Surface Plasmon Resonance Spectroscopy (SPR) analyses were performed to determine binding of various molecules to full length Hsp90α using a Biacore 3000 optical biosensor equipped with research-grade CM5 sensor chips (GE Healthcare). Hsp90α was coupled to the surface of a CM5 sensor chip using standard amine-coupling protocols, according to the manufacturer’s instructions.
The protein (100 µg mL^−1 in 10 mM CH3COONa, pH 5.0) was immobilized on individual sensor chip surfaces at a flow rate of 5 µL min^−1 to obtain densities of 8–12 kRU. For the experiments a recombinant Hsp90α surface, a BSA surface and one unmodified reference surface were prepared for simultaneous analyses. […] For each molecule a six-point concentration series were set up, spanning […], and for each sample the complete binding study was performed using triplicate aliquots. Changes in mass, due to the binding response, were recorded as resonance units (RU). To obtain the dissociation constant (KD) (Table 1), these responses were fit to a 1:1 Langmuir binding model by nonlinear regression using the BiaEvaluation software program provided by GE Healthcare. Simple interactions were suitably fitted to a single-site bimolecular interaction model (A + B = AB), yielding a single KD. (Table 1). SPR experiments were performed at 25 °C, using a flow rate of 50 µL min^−1, with 60 s monitoring of association and 300 s monitoring of dissociation.
On the technique in general: In SPR one partner is held on a chip, and binding of the other changes the refractive index at the surface.

In series [1] the test system is U937 (human monocytic cell line from histiocytic lymphoma). Nature of the series: Anti-proliferation MTT assay, U937 cells. The series is classed as cell-based. The following applies: Homo sapiens. Here is the method: (§1) Jurkat and U937 (2 × 10^4 /well) cells were seeded in triplicate in 96 well−plates and incubated for the 24 h or 48 h in the absence or presence of different concentrations of compounds 1, 4–5, 7–15, 21–22, 26 (concentration between 10 µM to 100 µM) or Novobiocin (concentration between 50 µM to 500 µM). Stock solutions of compounds (100 mM in DMSO) were diluted just before addition to the sterile culture medium and the final concentration of DMSO was 0.15% (v/v).
(§2) The number of viable cells was determined by using a […] (MTT, Sigma-Aldrich) conversion assay, according to the method described by Terracciano et al. 2016[27],[28]. After the indicated treatment, the cells were incubated for additional 3 h at 37 °C, with 25 µL of MTT (5 mg/mL in PBS). The formazan crystals thus formed were dissolved in 100 μl of buffer containing 50% (v/v) N,N-dimethylformamide, 20% SDS (pH 4.5). The absorbance was read at 570 nm using an Absorbance Microplate Reader (Titertek multiskan MCC7340, LabSystems, Vienna, VA, USA) equipped with a 620 nm filter. The cell population growth inhibition was also tested by cytometric counting (trypan blu exclusion). IC50 values were calculated from cell viability dose−response curves and defined as the concentration resulting in 50% inhibition of cell survival, compared to control cells treated with DMSO (see Supplementary Material Tables S2 and S3).
In general terms: Tetrazolium dyes change colour on reduction, which living cells bring about.

Series [2] deals with Jurkat (human leukemic T lymphocyte). Nature of the series: Anti-proliferation MTT assay, Jurkat cells. The series is classed as cell-based. Conditions: Homo sapiens. Here is the method: as §1, §2
The subject of series [3] is PHA-stimulated human peripheral blood mononuclear cells (PBMC). Nature of the series: Cytotoxicity on PHA-stimulated PBMC by trypan blue count. The following applies: 25 µM, DMSO control about 5 ± 0.9%. The format is cell-based. Here is the method:
Human peripheral blood mononuclear cells (PBMC), induced to proliferate by phytohemagglutinin (PHA) (10 µg/ml), were used to evaluate cytotoxic effects by trypan blue count of compound 7 and 10. Human peripheral blood mononuclear cells (PBMC) were isolated from buffy coats of healthy donors (kindly provided by the Blood Center of the Hospital of Battipaglia, Salerno, Italy) by using standard Ficoll−Hypaque gradients.

A further series has as its system Jurkat cells. Nature of the series: Cell cycle distribution / hypodiploid cells by PI flow cytometry. The series is classed as cell-based, human. Here is the method: Cell DNA content was measured by propidium iodide (PI) incorporation into permeabilized cells, as described by Nicoletti et al. Briefly, the Jurkat cells were treated for 24 h or 48 h with compounds used at the different concentrations. In particular, the compounds 7 or 10 were used at 25 or 50 µM, novobiocin was used at 50, 100 or 200 µM. The treated cells were harvested and incubated with a PI solution (0.1% sodium citrate, 0.1% Triton X-100 and 50 μg/ml of prodium iodide, Sigma-Aldrich, 10 μg/ml Rnase A) for 30 min at room temperature.
The cells were analyzed using FACScalibur flow cytometry (Becton Dickinson, San Josè, CA. The distribution of cells in cell cycle phases was determined using ModFit LT analysis software (Becton Dickinson). The percentage of apoptotic cells is represented as the percentage of hypodiploid cells accumulated at the sub G0/G1 phase of the cell cycle and was quantified using the CellQuest software (Becton Dickinson). Results were expressed as a mean ± SD of three experiments performed in triplicate.
A general note: In flow cytometry, cells or beads pass a laser one at a time.

The subject of series [4] is Hsp90-dependent client proteins Raf-1, p-Akt, p-Erk and p53; Hsc70, Hsp90, Hsp70 in Jurkat cells. Nature of the series: Western blot of Hsp90 client proteins and heat shock proteins. The following applies: 25 and 50 µM, 24 h, western blot densitometry. The format is cell-based, human. Here is the method: Following the treatment, the cells were trypsinized and homogenized on ice in RIPA lysis buffer (50 mM Hepes, 10 mM EDTA, 150 mM NaCl, 1% NP-40, 0.5% sodium deoxycholate, 0.1% SDS, pH 7.4), supplemented with protease inhibitors cocktail (Sigma-Aldrich). After centrifugation at 4 °C to removed cell debris, an equal protein amount (40 µg) was separated by SDS-PAGE under denatured reducing conditions and was then transferred to nitrocellulose membranes. The blots were blocked with 3% BSA and were incubated at 4 °C overnight with primary antibodies: anti-Hsp 70; anti-Hsp 90α/ß, anti-Raf1, anti-pAkt, anti Erk, anti pErk, anti-p53, anti Hsc70, anti GRP94, anti cyclin A antibodies (Santa Cruz Biotechnology, Inc., Delaware, CA, USA), anti-actin antibody (Sigma-Aldrich) anti CDK2, anti Cyclin D1 and anti CDK4 antibodies (Cell Signaling Technology, Leiden, Netherlands). Appropriate peroxidase-conjugate secondary antibodies were used to detect primary antibodies, and enzymatic signals were visualized by chemiluminescence reagent Pierce ECL (Thermo Scientific, Rockford, IL, USA). Quantitative densitometry analyses were performed using a ImageQuant LAS 4000 system (GE Healthcare Life Sciences,NY, USA).

One may read the Kd as the concentration at which binding is half-saturated. Broadly, the IC50 is the midpoint of a concentration-inhibition curve.

Read-outs that look alike come from different tables or passages of the source.

Take `O=C(CCCCCn1c(=O)[nH]c2ccccc2c1=O)Nc1ccc(Br)cc1F` [Compound 10]: at recombinant human Hsp90α, the Kd is 20.8 ± 8.7 nM. For the same compound, the IC50 was 52 µM in series [1] (U-937, 24 h, read-out: IC50 (µM) 24h); 50 µM in series [1] (U-937, 48 h, read-out: IC50 (µM) 48h); 26.1 µM in series [2] (24 h, read-out: IC50 (µM) 24h); 23.5 µM in series [2] (48 h, read-out: IC50 (µM) 48h). Further, the non-viable cells percentage entry in series [3] (24 h) is “about 7 ± 1.3%”; in series [3] (48 h) it was around 9 ± 1.8%. The “hypodiploid cells (subG0/G1 DNA content)” value with Jurkat cells (100 µM, 48 h) came to 10%. The “cell cycle phase in which cells are arrested” value in the series on Jurkat cells (after 24 h, retained after 48 h) is recorded as “S phase”. The “degradation of Hsp90-dependent client proteins Raf-1, p-Akt, p-Erk and p53” value in series [4] is 50–60%. The “reduction of Hsc70” value in series [4] is 15–20%.

(Values after article PMC5786060, “Discovery of new molecular entities able to strongly interfere with Hsp90 C-terminal domain” (Scientific Reports, 2018).)
